The structures appear in SMILES notation. “Also recorded” adds a separate entry of the source. Where two headings read alike, the source gives them in different places.

The values below come from publication PMC11547804, “Synthesis and Evaluation of Phenyltriazole-Deoxynojirimycin Hybrids as Potent α-Glucosidase Inhibitors” (Molecules, 2024).

Series [1] addresses T1, α-glucosidase (yeast) (Saccharomyces cerevisiae, UniProt P53341).
T1 construct: purchased Sigma Chemical Co., St. Louis, MO, USA
Put plainly: α-glucosidase (yeast) inhibition assay, p-nitrophenyl glycopyranoside substrate. It is filed as biochemical. As to conditions: 50 mM phosphate buffer pH 6.8, 37 °C; mean ± SD, three independent experiments. The procedure: (§1) Compounds 10–20 (except 15 for solubility reasons) were evaluated by in vitro α-glucosidase (yeast), β-glucosidase (almonds) inhibition studies.
(§2) Two glycosidases, α-glucosidase (yeast) and β-glucosidase (almonds), and their corresponding substrates, p-nitrophenyl glycopyranosides, were purchased from Sigma Chemical Co., St. Louis, MO, USA. Other commercial reagents and solvents were used as received. Reactions were monitored by Thin Layer Chromatography (TLC) analyses using silica gel GF254 plates bearing a 0.25 mm layer. Visualization of compounds was detected by short-wave UV fluorescence (λ = 254 nm) and/or by dipping into 5% phosphomolybdic acid in EtOH. Column chromatography was carried out by silica gel (200–300 mesh). NMR spectra (^1H and ^13C) were recorded with Bruker AV III 500 MHz spectrometer using CDCl3 (22–33), D2O (10–13, 16–20) or CD3OD (14, 15) as solvents. High-resolution mass spectra (HRMS) were obtained by direct injection on a mass spectrometer (Thermo Scientific LTQ Orbitrap XL, Waltham, MA, USA) equipped with an electrospray ion source in positive mode (see Supplementary Materials).
(§3) The α-glucosidase and β-glucosidase assays were performed in 50 mM phosphate buffer (pH 6.8) at 37 °C. The inhibitors were pre-incubated with the enzyme solutions at 37 °C for 15 min, and then the corresponding substrates were added. After the enzymatic reaction was incubated at 37 °C for 15 min., it was quenched by adding Na2CO3. Absorbance readings were taken on a BioTek µQuant Microplate Spectrophotometer at 405 nm. Experiments were performed in triplicate. The IC50 values were determined graphically using GraphPad Prism (version 8.0).

In series [2] the target is β-glucosidase (almonds). Put plainly: β-glucosidase (almonds) inhibition assay, p-nitrophenyl glycopyranoside substrate. It is filed as biochemical. As to conditions: 50 mM phosphate buffer pH 6.8, 37 °C; mean ± SD, three independent experiments. As to the method: as §1, §2, §3
For series [3], the target named is T1, α-glucosidase (yeast). Also noted: method as in doi:10.1080/07328303.2020.1837150. The conditions noted are these: data for 7–9 and DNJ included for comparative purposes; cited from earlier work.
Series [4] has as its target β-glucosidase (almonds). The conditions noted are these: data for 7–9 and DNJ included for comparative purposes; cited from earlier work.
Series [5] is described as follows: Cell proliferation / viability CCK-8 assay. It is filed as cell-based. As to conditions: human, HL60 cells; HL60, 50 µM, 24 h, CCK-8. As to the method: (§4) Compounds 9, 13 and 17–20 with better inhibitory activity on α-glucosidase were selected to study the effect on cell viability and proliferation by CCK-8 assay (Figure 5). […] When viability was measured at 50 µM for these compounds, the viability of compound 19 was 96.97% compared with 20.89% for compound 20. […] With the increase in compound concentration, a lot of dead cells and more cell debris were observed, and the culture medium became muddy for 20, which was not obviously observed for 9, 13 and 17–19.
(§5) HL60 cells in DMEM supplemented with 10% fetal bovine serum were seeded at a density of 5 × 10^3 cells/well in a 96-well plate and incubated at 37 °C for 24 h. The medium was substituted with fresh medium containing a range of concentrations of inhibitors in DMSO and cultured for another 24 h. CCK-8 solution (10 µL) was added to each well incubated at 37 °C for 1 h. The absorbance was read on a BioTek µQuant Microplate Spectrophotometer at 450 nm. The cell vitality curve was depicted with GraphPad Prism (version 8.0).

Series [6] deals with HL60 cells. Briefly: Cell proliferation / viability CCK-8 assay. It is filed as cell-based. As to conditions: for cell survival rate: HL60, 80 µM, 24 h, CCK-8. The procedure: as §4, §5
On the technique in general: Tetrazolium dyes change colour on reduction, which living cells bring about.

Series [7] deals with T2, yeast α-glucosidase (Saccharomyces cerevisiae, UniProt P53341).
T2 construct: purchased Sigma Chemical Co., St. Louis, MO, USA
Put plainly: Kinetics of enzyme inhibition (Lineweaver–Burk plots). It is filed as biochemical. The conditions noted are these: for mode of inhibition: Lineweaver–Burk plot, same Vmax; for Ki: substrate para-nitrophenyl α-D-glucopyranoside, pH 6.8, 37 °C, read-out: inhibition constant (Ki). The procedure: In order to gain further insight into how these hybrids interact with α-glucosidase, the mode of inhibition for compounds 18 and 19 as representative examples was analyzed using the Lineweaver–Burk plot (Figure 2).
The inhibition types of the selected compounds were determined from Lineweavere–Burk plots. […] The enzyme reaction was performed according to the conditions described above.
Figure 2 Double-reciprocal plots of the inhibition kinetics of yeast α-glucosidase by compounds 18 (a), 19 (b).

T2 sequence (P53341 whole entry): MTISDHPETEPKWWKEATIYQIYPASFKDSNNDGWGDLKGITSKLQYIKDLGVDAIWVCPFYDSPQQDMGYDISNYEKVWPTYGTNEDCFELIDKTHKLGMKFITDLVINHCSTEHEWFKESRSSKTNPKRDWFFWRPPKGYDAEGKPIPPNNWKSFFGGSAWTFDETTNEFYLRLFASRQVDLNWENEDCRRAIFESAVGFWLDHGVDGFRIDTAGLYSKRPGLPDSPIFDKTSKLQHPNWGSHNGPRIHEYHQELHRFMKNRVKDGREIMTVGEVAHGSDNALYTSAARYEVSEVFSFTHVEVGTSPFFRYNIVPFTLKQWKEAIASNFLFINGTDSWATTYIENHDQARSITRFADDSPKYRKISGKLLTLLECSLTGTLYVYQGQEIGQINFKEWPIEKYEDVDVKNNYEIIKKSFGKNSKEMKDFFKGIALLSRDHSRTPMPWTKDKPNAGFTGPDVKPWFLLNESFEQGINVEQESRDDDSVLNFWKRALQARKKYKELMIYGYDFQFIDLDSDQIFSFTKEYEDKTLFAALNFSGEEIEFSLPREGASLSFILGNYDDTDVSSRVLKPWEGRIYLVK
T1 sequence (P53341 whole entry): as above

As for `CCCc1ccc(-c2cn(CCCCCCN3C[C@H](O)[C@@H](O)[C@H](O)[C@H]3CO)nn2)cc1` [Compound 17, (2R,3R,4R,5S)-2-(hydroxymethyl)-1-(6-(4-(4-propylphenyl)-1H-1,2,3-triazol-1-yl)hexyl)piperidine-3,4,5-triol], the figures for the half-maximal inhibitory concentration (IC50) in series [1] and in series [2] were 14 ± 1 µM and 62 ± 4 µM, respectively.

Take `CCc1ccc(-c2cn(CCCCN3C[C@H](O)[C@@H](O)[C@H](O)[C@H]3CO)nn2)cc1` [Compound 10, (2R,3R,4R,5S)-1-(4-(4-(4-ethylphenyl)-1H-1,2,3-triazol-1-yl)butyl)-2-(hydroxymethyl)piperidine-3,4,5-triol]: the IC50 is 244 ± 32 µM in series [1] and greater than 1000 µM in series [2].

Regarding `Cc1ccc(-c2cn(CCCCN3C[C@H](O)[C@@H](O)[C@H](O)[C@H]3CO)nn2)cc1` [Compound 8], the IC50 in series [3] was 324 ± 65 µM; in series [4], greater than 1000 µM.

Turning to `OC[C@H]1NC[C@H](O)[C@@H](O)[C@@H]1O` [DNJ, 1-deoxynojirimycin], in series [4], the IC50 was […].

Regarding `CCCCc1ccc(-c2cn(CCCCN3C[C@H](O)[C@@H](O)[C@H](O)[C@H]3CO)nn2)cc1` [Compound 12, (2R,3R,4R,5S)-1-(4-(4-(4-butylphenyl)-1H-1,2,3-triazol-1-yl)butyl)-2-(hydroxymethyl)piperidine-3,4,5-triol], the IC50 in series [1] is 105 ± 9 µM; in series [2] it was 770 ± 92 µM.

For the compound `CCCCCCc1ccc(-c2cn(CCCCCCN3C[C@H](O)[C@@H](O)[C@H](O)[C@H]3CO)nn2)cc1` [Compound 20, (2R,3R,4R,5S)-1-(6-(4-(4-hexylphenyl)-1H-1,2,3-triazol-1-yl)hexyl)-2-(hydroxymethyl)piperidine-3,4,5-triol], the half-inhibitory concentration (IC50) in series [1] was 16 ± 2 µM; in series [2], 77 ± 4 µM. The compound also showed a viability at 24 h, 50 µM in series [5] of 20.9%. Further, in series [6] (HL60, 50 µM), the “cytotoxicity” value is given as “exhibited cytotoxicity; also recorded: cytotoxic”. The cell survival rate in series [6] worked out at 6.66%.

On to `CCCCc1ccc(-c2cn(CCCCCCN3C[C@H](O)[C@@H](O)[C@H](O)[C@H]3CO)nn2)cc1` [Compound 18, (2R,3R,4R,5S)-1-(6-(4-(4-butylphenyl)-1H-1,2,3-triazol-1-yl)hexyl)-2-(hydroxymethyl)piperidine-3,4,5-triol], for which the IC50 in series [1] amounted to 11 ± 1 µM. The IC50 in series [2] worked out at 69 ± 5 µM. Moreover, in series [7], the mode of inhibition entry is recorded as “competitive” and the Ki came out at 3.8 µM.

In series [1], `CCCCCc1ccc(-c2cn(CCCCCCN3C[C@H](O)[C@@H](O)[C@H](O)[C@H]3CO)nn2)cc1` [Compound 19, (2R,3R,4R,5S)-2-(hydroxymethyl)-1-(6-(4-(4-pentylphenyl)-1H-1,2,3-triazol-1-yl)hexyl)piperidine-3,4,5-triol] came in with an IC50 of 11 ± 1 µM. Moreover, the IC50 in series [2] was 73 ± 7 µM. For the same compound, in series [7], the mode of inhibition result is on record as “competitive” and the Ki amounted to 3.7 µM. The viability at 24 h, 50 µM in series [5] stood at 97%. In series [6], this compound yielded a cell survival rate of 71.28%.

Regarding `OC[C@@H]1[C@@H](O)[C@H](O)[C@@H](O)CN1CCCCn1cc(-c2ccccc2)nn1` [Compound 7], the IC50 in series [3] was 551 ± 25 µM; in series [4], greater than 1000 µM.

With `CCCc1ccc(-c2cn(CCCCN3C[C@H](O)[C@@H](O)[C@H](O)[C@H]3CO)nn2)cc1` [Compound 11, (2R,3R,4R,5S)-2-(hydroxymethyl)-1-(4-(4-(4-propylphenyl)-1H-1,2,3-triazol-1-yl)butyl)piperidine-3,4,5-triol], the IC50 in series [1] stood at 171 ± 25 µM; in series [2] it was 739 ± 78 µM.

In the case of `OC[C@@H]1[C@@H](O)[C@H](O)[C@@H](O)CN1CCCCCCn1cc(-c2ccccc2)nn1` [Compound 14, (2R,3R,4R,5S)-2-(hydroxymethyl)-1-(6-(4-phenyl-1H-1,2,3-triazol-1-yl)hexyl)piperidine-3,4,5-triol], the figures for the IC50 in series [1] and in series [2] were 130 ± 9 µM and 130 ± 5 µM, respectively.

Turning to `CCCCCCc1ccc(-c2cn(CCCCN3C[C@H](O)[C@@H](O)[C@H](O)[C@H]3CO)nn2)cc1` [Compound 13, (2R,3R,4R,5S)-1-(4-(4-(4-hexylphenyl)-1H-1,2,3-triazol-1-yl)butyl)-2-(hydroxymethyl)piperidine-3,4,5-triol], the IC50 in series [1] worked out at 82 ± 5 µM; in series [2], 529 ± 41 µM.

In the case of `CCc1ccc(-c2cn(CCCCCCN3C[C@H](O)[C@@H](O)[C@H](O)[C@H]3CO)nn2)cc1` [Compound 16, (2R,3R,4R,5S)-1-(6-(4-(4-ethylphenyl)-1H-1,2,3-triazol-1-yl)hexyl)-2-(hydroxymethyl)piperidine-3,4,5-triol], the values for the IC50 in series [1] and in series [2] were 68 ± 4 µM and 65 ± 2 µM, respectively.

Turning to `CCCCCc1ccc(-c2cn(CCCCN3C[C@H](O)[C@@H](O)[C@H](O)[C@H]3CO)nn2)cc1` [Compound 9], the IC50 in series [3] was 63 ± 6 µM; in series [4] it was 665 ± 57 µM.

The IC50 is the concentration that gives 50% inhibition. As a reminder, the viability is a per cent measure of how many cells are alive, often set against a control. Read a low viability as a greater loss of cells. As usually defined, the Ki is a measure of affinity in units of concentration, obtained from inhibition or displacement.
